Assay results: PubChem BioAssay AID248 (DTP/NCI, 2004)
Where “and” joins values, the source holds several entries; their conditions need not be identical. Identical values can stand only once. Toxic doses and inconclusive results are not listed.

System: L1210 leukemia ip in BDF1 mice, survival T/C
Experiment: NCI In Vivo Anticancer Drug Screen. Data for tumor model L1210 Leukemia (intraperitoneal) in B6D2F1 (BDF1) mice
Conditions: endpoint: mean survival time, higher = longer survival
How it was run: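 Tumor was transplanted into mice, which were then dosed with test compound or vehicle alone. Survival was recorded for each group, and the treated figure was expressed relative to the control figure.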

[1] = dose: 100.0 mg/kg/injection, schedule: Q01DX009 (ip), vehicle: Klucel (hydroxypropylcellulose) (HPC)
[2] = dose: 100.0 mg/kg/injection, schedule: Q04DX003 (ip), vehicle: Klucel (hydroxypropylcellulose) (HPC)
[3] = dose: 100.0 mg/kg/injection, schedule: Q04DX003 (ip), vehicle: saline with Tween-80
[4] = dose: 200.0 mg/kg/injection, schedule: Q04DX003 (ip), vehicle: saline with Tween-80
[5] = dose: 400.0 mg/kg/injection, schedule: Q04DX003 (ip), vehicle: saline with Tween-80
[6] = dose: 100.0 mg/kg/injection, schedule: Q01DX001 (ip), vehicle: saline
[7] = dose: 200.0 mg/kg/injection, schedule: Q01DX001 (ip), vehicle: saline
[8] = dose: 400.0 mg/kg/injection, schedule: Q01DX001 (ip), vehicle: saline
[9] = dose: 50.0 mg/kg/injection, schedule: Q01DX009 (ip), vehicle: saline with Tween-80
[10] = dose: 100.0 mg/kg/injection, schedule: Q01DX009 (ip), vehicle: saline with Tween-80
[11] = dose: 100.0 mg/kg/injection, schedule: Q04DX002 (ip), vehicle: saline
[12] = dose: 200.0 mg/kg/injection, schedule: Q04DX002 (ip), vehicle: saline

Compound: OCC1(CO)COC(c2ccccc2)OC1
- T/C (dose: 25.0 mg/kg/injection, schedule: Q01DX009 (ip), vehicle: Klucel (hydroxypropylcellulose) (HPC)): 101 % of control
- T/C (dose: 50.0 mg/kg/injection, schedule: Q01DX009 (ip), vehicle: Klucel (hydroxypropylcellulose) (HPC)): 101 % of control
- T/C (dose: 50.0 mg/kg/injection, schedule: Q04DX003 (ip), vehicle: Klucel (hydroxypropylcellulose) (HPC)): 97 % of control
- T/C [1]: 108 % of control
- T/C [2]: 90 % of control

Compound: Nc1ccc2ccccc2c1S(=O)(=O)O
- T/C [3]: 98 % of control
- T/C [4]: 95 % of control
- T/C [5]: 98 % of control

Compound: O=C1c2ccccc2C(=O)C1(c1ccccc1)c1ccccc1
- T/C (dose: 100.0 mg/kg/injection, schedule: Q01DX001 (ip), vehicle: carboxymethylcellulose (CMC)): 103 % of control
- T/C (dose: 200.0 mg/kg/injection, schedule: Q01DX001 (ip), vehicle: carboxymethylcellulose (CMC)): 97 % of control
- T/C (dose: 400.0 mg/kg/injection, schedule: Q01DX001 (ip), vehicle: carboxymethylcellulose (CMC)): 92 % of control

Compound: Cc1cccc(C(=O)NO)c1O
- T/C (dose: 75.0 mg/kg/injection, schedule: Q01DX001 (ip), vehicle: saline): 101 % of control
- T/C (dose: 150.0 mg/kg/injection, schedule: Q01DX001 (ip), vehicle: saline): 98 % of control

Compound: CC(C)C1=CC23CCC4C(C)(C(N)=O)CCCC4(C)C2CC1C1C(=O)NC(=O)C13 (stereo not drawn)
- T/C [2]: 97 % of control
- T/C (dose: 200.0 mg/kg/injection, schedule: Q04DX003 (ip), vehicle: Klucel (hydroxypropylcellulose) (HPC)): 95 % of control
- T/C (dose: 400.0 mg/kg/injection, schedule: Q04DX003 (ip), vehicle: Klucel (hydroxypropylcellulose) (HPC)): 92 % of control

Compound: Cc1ccc(-n2cnc3c(=O)[nH]cnc32)cc1
- T/C [6]: 98 % of control
- T/C [7]: 93 % of control
- T/C [8]: 93 % of control

Compound: O=C1NCCN1c1cccc([N+](=O)[O-])c1
- T/C (dose: 25.0 mg/kg/injection, schedule: Q01DX009 (ip), vehicle: saline with Tween-80): 108 % of control
- T/C [9]: 103 % of control
- T/C (dose: 100.0 mg/kg/injection, schedule: Q01DX001 (ip), vehicle: Klucel (hydroxypropylcellulose) (HPC)): 96 % of control
- T/C [10]: 98 % of control

Compound: CC(C)(CO)N(CC(=O)O)CC(=O)O
- T/C [6]: 101 % of control
- T/C [7]: 103 % of control

Compound: SC1CC[N-]CC1.SC1CC[N-]CC1.[Cl][Pt+2][Cl]
- T/C (dose: 25.0 mg/kg/injection, schedule: Q01DX009 (ip), vehicle: water): 96 % of control
- T/C (dose: 50.0 mg/kg/injection, schedule: Q01DX009 (ip), vehicle: water): 101 % of control
- T/C (dose: 100.0 mg/kg/injection, schedule: Q01DX009 (ip), vehicle: water): 96 % of control
- T/C (dose: 100.0 mg/kg/injection, schedule: Q04DX003 (ip), vehicle: water): 101 % of control
- T/C (dose: 200.0 mg/kg/injection, schedule: Q01DX009 (ip), vehicle: water): 98 % of control
- T/C (dose: 200.0 mg/kg/injection, schedule: Q04DX003 (ip), vehicle: water): 97 % of control

Compound: O=C(N/N=C/c1ccc(Cl)c(Cl)c1)c1cccc2ccccc12
- T/C [6]: 87 % of control
- T/C [8]: 90 % of control

Compound: CCCCOC(=O)C1OC1(CC)c1ccccc1 (stereo not drawn)
- T/C (dose: 100.0 mg/kg/injection, schedule: Q04DX002 (ip), vehicle: saline with Tween-80): 88 % of control
- T/C (dose: 200.0 mg/kg/injection, schedule: Q04DX002 (ip), vehicle: saline with Tween-80): 97 % of control
- T/C (dose: 400.0 mg/kg/injection, schedule: Q04DX002 (ip), vehicle: saline with Tween-80): 100 % of control

Compound: C[N+]1(N)CCCCCC1
- T/C [11]: 94 % of control
- T/C [12]: 113 % of control
- T/C (dose: 400.0 mg/kg/injection, schedule: Q04DX002 (ip), vehicle: saline): 87 % of control

Compound: C[n+]1ccc2cc(-c3ccccc3)c3ccccc3c2c1
- T/C (dose: 1.56 mg/kg/injection, schedule: Q01DX009 (ip), vehicle: water): 102 % of control
- T/C (dose: 3.12 mg/kg/injection, schedule: Q01DX009 (ip), vehicle: water): 104 % of control
- T/C (dose: 6.25 mg/kg/injection, schedule: Q01DX009 (ip), vehicle: water): 104 % of control
- T/C (dose: 6.25 mg/kg/injection, schedule: Q04DX003 (ip), vehicle: water): 98 % of control
- T/C (dose: 12.5 mg/kg/injection, schedule: Q01DX009 (ip), vehicle: water): 95 % of control
- T/C (dose: 12.5 mg/kg/injection, schedule: Q04DX003 (ip), vehicle: water): 103 % of control
- T/C (dose: 25.0 mg/kg/injection, schedule: Q04DX003 (ip), vehicle: water): 88 % of control

Compound: N=C(N)c1ccc(Oc2ccc(-c3cc4ccc(C(=N)N)cc4[nH]3)cc2)cc1
- T/C (dose: 1.56 mg/kg/injection, schedule: Q01DX009 (ip), vehicle: saline with Tween-80): 90 % of control
- T/C (dose: 3.12 mg/kg/injection, schedule: Q01DX009 (ip), vehicle: saline with Tween-80): 106 % of control
- T/C (dose: 6.25 mg/kg/injection, schedule: Q04DX003 (ip), vehicle: saline): 100 % of control (2×) and 112 % of control
- T/C (dose: 12.5 mg/kg/injection, schedule: Q01DX009 (ip), vehicle: saline with Tween-80): 119 % of control
- T/C (dose: 12.5 mg/kg/injection, schedule: Q04DX003 (ip), vehicle: saline): 112 % of control and 120 % of control and 122 % of control
- T/C (dose: 25.0 mg/kg/injection, schedule: Q04DX003 (ip), vehicle: saline): 112 % of control

Compound: CC(F)C(Br)C(=O)O (stereo not drawn)
- T/C [11]: 90 % of control
- T/C [12]: 90 % of control

Compound: O=C(O)C1=CC2C=C(Cl)C=CC2OC1=O (stereo not drawn)
- T/C (dose: 5.0 mg/kg/injection, schedule: Q01DX001 (ip), vehicle: saline): 95 % of control
- T/C (dose: 10.0 mg/kg/injection, schedule: Q01DX001 (ip), vehicle: saline): 93 % of control
- T/C (dose: 20.0 mg/kg/injection, schedule: Q01DX001 (ip), vehicle: saline): 96 % of control
- T/C (dose: 40.0 mg/kg/injection, schedule: Q01DX001 (ip), vehicle: saline): 96 % of control
- T/C (dose: 80.0 mg/kg/injection, schedule: Q01DX001 (ip), vehicle: saline): 96 % of control
- T/C [6]: 111 % of control
- T/C [7]: 100 % of control

Compound: Cc1cc(Cl)nc2ccc3ccccc3c12
- T/C [6]: 96 % of control
- T/C [7]: 93 % of control
- T/C [8]: 89 % of control

Compound: CC(C)C(NC(=O)CCNC(=O)OCc1ccccc1)C(=O)O (stereo not drawn)
- T/C [3]: 97 % of control
- T/C [4]: 97 % of control
- T/C [5]: 97 % of control

Compound: N=c1ccn(C2OC(CO)C(O)C2O)c(=O)n1O (stereo not drawn)
- T/C (dose: 5.0 mg/kg/injection, schedule: Q01DX009 (ip), vehicle: saline): 123 % of control
- T/C (dose: 10.0 mg/kg/injection, schedule: Q01DX009 (ip), vehicle: saline): 100 % of control
- T/C [6]: 105 % of control
- T/C [7]: 108 % of control
- T/C [8]: 103 % of control and 105 % of control
- T/C (dose: 400.0 mg/kg/injection, schedule: Q01DX009 (ip), vehicle: saline): 167 % of control
- T/C (dose: 600.0 mg/kg/injection, schedule: Q01DX001 (ip), vehicle: saline): 105 % of control
- T/C (dose: 600.0 mg/kg/injection, schedule: Q01DX009 (ip), vehicle: saline): 94 % of control
- T/C (dose: 800.0 mg/kg/injection, schedule: Q01DX001 (ip), vehicle: saline): 110 % of control
- T/C (dose: 800.0 mg/kg/injection, schedule: Q01DX009 (ip), vehicle: saline): 94 % of control

Compound: CC(C)CCCC(C)C1CCC2C3CC(O)C4=CC(O)CCC4(C)C3CCC12C (stereo not drawn)
- T/C (dose: 75.0 mg/kg/injection, schedule: Q01DX001 (ip), vehicle: other): 92 % of control
- T/C (dose: 150.0 mg/kg/injection, schedule: Q01DX001 (ip), vehicle: other): 93 % of control

Compound: COc1ccc(OC)c(NC(=O)Nc2ccccc2C(F)(F)F)c1
- T/C [1]: 102 % of control
- T/C (dose: 200.0 mg/kg/injection, schedule: Q01DX009 (ip), vehicle: Klucel (hydroxypropylcellulose) (HPC)): 89 % of control
- T/C (dose: 400.0 mg/kg/injection, schedule: Q01DX009 (ip), vehicle: Klucel (hydroxypropylcellulose) (HPC)): 95 % of control

Compound: COc1ccc(/C=C/C(=O)c2ccc(OCc3ccccc3)c(OC)c2)cc1OC
- T/C [9]: 105 % of control
- T/C [10]: 104 % of control
- T/C (dose: 200.0 mg/kg/injection, schedule: Q01DX009 (ip), vehicle: saline with Tween-80): 98 % of control
- T/C (dose: 400.0 mg/kg/injection, schedule: Q01DX009 (ip), vehicle: saline with Tween-80): 90 % of control
- T/C (dose: 500.0 mg/kg/injection, schedule: Q01DX009 (ip), vehicle: saline with Tween-80): 102 % of control

Compound: N=C(CN1CCCCC1)N1CCCCC1
- T/C [11]: 104 % of control
